We go through 15 molecules from article PMC5309242, “Substrate-Dependence of Competitive Nucleotide Pyrophosphatase/Phosphodiesterase1 (NPP1) Inhibitors” (Frontiers in Pharmacology, 2017).

Data set [1] deals with T1, human NPP1 (Homo sapiens, UniProt P22413).
T1 construct: Human recombinant soluble NPP1 (Val191—Leu591) expressed in murine myeloma NS0 cells; His-tag (N); purchased R&D Systems GmbH (Wiesbaden, Germany); host or cells: murine myeloma NS0 cells
T1 sequence (P22413 191-591): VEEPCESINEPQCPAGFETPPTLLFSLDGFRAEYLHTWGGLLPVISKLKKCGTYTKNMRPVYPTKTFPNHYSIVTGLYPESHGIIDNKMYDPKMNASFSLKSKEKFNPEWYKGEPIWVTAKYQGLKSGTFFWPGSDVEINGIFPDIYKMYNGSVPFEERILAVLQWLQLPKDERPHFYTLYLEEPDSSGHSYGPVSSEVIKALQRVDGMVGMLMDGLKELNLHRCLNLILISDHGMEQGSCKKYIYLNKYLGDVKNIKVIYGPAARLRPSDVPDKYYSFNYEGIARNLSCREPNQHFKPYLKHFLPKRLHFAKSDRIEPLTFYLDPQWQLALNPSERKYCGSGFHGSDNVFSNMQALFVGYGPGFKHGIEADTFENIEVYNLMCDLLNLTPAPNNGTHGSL
Also on record: method as in Namasivayam et al., 2017. The note with it: substrate of NPP1; ref Namasivayam et al., 2017; cited from earlier work.

Data set [2] deals with T1, human NPP1. Description: Inhibition constants and mechanism of inhibition (Hanes-Woolf plots) compared across all investigated substrates. The class given is biochemical. As to conditions: for Inhibition type: Hanes-Woolf plots, same type vs. all three substrates (ATP, p-Nph-5′-TMP, p-Nph-5′-AMP).
Description: (§2) The instrumentations and operation conditions for the experiments were the same as those described in the Sections Determination of Kinetic Parameters of Artificial Substrates and Determination of Concentration-Dependent Inhibition Curves. Each analysis was performed in three separate experiments. The inhibition type of each inhibitor was then evaluated graphically from the Hanes-Woolf plots. For the determination of the (α)Ki-values the slope of the reciprocal lines from the Hanes-Woolf plot were plotted as a function of inhibitor concentrations using Prism 5.0.
Data set [3] addresses T1, human NPP1. Description: NPP1 inhibition vs. natural substrate ATP (CE, AMP quantified by UV at 260 nm). The class given is biochemical.
Description: Human recombinant soluble NPP1 (Val191—Leu591) expressed in murine myeloma NS0 cells was purchased from R&D Systems GmbH (Wiesbaden, Germany, purity > 95%, purified by using N-terminal His-tag).
For the natural substrate ATP, the enzyme inhibition assays were performed in 10 mM CHES buffer containing 400 μM of substrate along with different inhibitor concentrations. Incubation and operation conditions were the same as described above with artificial substrates. The analysis was performed by CE and the amounts of AMP produced were quantified by their UV absorption at 260 nm. Each analysis was repeated twice in three separate experiments.
Each analysis was performed in three separate experiments. The inhibition type of each inhibitor was then evaluated graphically from the Hanes-Woolf plots. For the determination of the (α)Ki-values the slope of the reciprocal lines from the Hanes-Woolf plot were plotted as a function of inhibitor concentrations using Prism 5.0.
For data set [4], the target named is T1, human NPP1. Description: NPP1 inhibition vs. artificial substrate p-Nph-5′-TMP (p-nitrophenolate at 400 nm). Format: biochemical.
Description: (§3) For testing vs. both synthetic substrates, p-Nph-5′-TMP and p-Nph-5′-AMP, solutions containing different concentrations of each inhibitor were prepared with 10 mM CHES buffer (See Section Determination of Kinetic Parameters of Artificial Substrates) containing 400 μM p-Nph-5′-TMP, or p-Nph-5′-AMP, respectively, in a final volume of 100 μl. […] Therefore, measurements were not performed colorimetrically, but by capillary electrophoresis (CE) with DAD detection of the formed p-nitrophenolate at 400 nm. The CE instrumentation and operation conditions were as follows: The CE instrumentation and operating conditions were as follows: P/ACE MDQ capillary electrophoresis system (Beckman Instruments, Fullerton, CA, USA) with a DAD detection system, polyacrylamide-coated capillaries of 50 cm effective length × 50 μm (id) obtained from CS Chromatographie GmbH (Langerwehe, Germany), 100 mM phosphate buffer (pH 6.5) as running buffer, electrokinetic injection (−6 kV, 60 s), separation voltage of −20 kV. The measurement was performed twice in three different experiments. Data collection and peak area analysis were performed by the 32 Karat software obtained from Beckman Coulter (Fullerton, CA, USA). The IC50-values of test compounds for each substrate were calculated by plotting of three independent experiments using the program Prism 5.0 (GraphPad software, San Diego, CA, USA).
as §2
For data set [5], the target named is T1, human NPP1. The data set can be described thus: NPP1 inhibition vs. new artificial substrate p-Nph-5′-AMP (p-nitrophenolate at 400 nm). Format: biochemical.
Description: as §3, §2
Data set [6] deals with T1, human NPP1. As to conditions: read-out: Ki, ATP; substrate ATP; mean ± SEM; ref Lee et al., 2015; cited from earlier work.
For data set [7], the target named is NPP1. The note with it: cited from earlier work; for Ki: vs. ATP as a substrate, ref Iqbal et al., 2008.
Data set [8] has as its target T1, human NPP1. Also on record: method as in Chang et al., 2014. As to conditions: more potent vs. p-Nph-5′-TMP than vs. ATP; ref Chang et al., 2014; cited from earlier work.
In data set [9] the target is T1, human NPP1. Also on record: method as in Lee and Müller, 2014. As to conditions: ref Lee and Müller, 2014; cited from earlier work.
Data set [10] deals with T1, human NPP1. The data set can be described thus: Enzyme kinetic parameters of NPP1 substrates. The class given is biochemical. The note with it: for kcat: substrate of human NPP1, pH 9.0, 37°C. Here is the method: (§1) Enzyme kinetic parameters were measured for p-Nph-5′-TMP and p-Nph-5′-AMP, both being artificial substrates of human NPP1. Solutions with different concentrations of both substrates (ranging from 1.0 to 500 μM) were prepared in 10 mM CHES buffer (in mM: 1 MgCl2, 2 CaCl2, 10 CHES, pH 9.0) and added in a final volume of 100 μl to 96-well-plates. The enzyme reactions were initiated by the addition of 20 ng of human NPP1 (for p-Nph-5′-TMP), or 75 ng of human NPP1 (for p-Nph-5′-AMP). The mixture was incubated at 37°C for 15 min (p-Nph-5′-TMP), or 30 min (for p-Nph-5′-AMP), respectively, and subsequently terminated by the addition of 20 μl of 1.0 N aqueous NaOH solution. The amounts of p-nitrophenolate liberated were measured at 400 nm. Each analysis was repeated twice in three separate experiments.

Substrate in data set [11]: Cc1cn([C@H]2C[C@H](O)[C@@H](COP(=O)(O)Oc3ccc([N+](=O)[O-])cc3)O2)c(=O)[nH]c1=O
The data set can be described thus: Enzyme kinetic parameters of NPP1 substrates. The class given is biochemical. As to conditions: other: substrate of human NPP1, pH 9.0, 37°C. Here is the method:
as §1

Substrate in data set [12]: Nc1ncnc2c1ncn2[C@@H]1O[C@H](COP(=O)(O)Oc2ccc([N+](=O)[O-])cc2)[C@@H](O)[C@H]1O
Description: Enzyme kinetic parameters of NPP1 substrates. The class given is biochemical. The note with it: other: substrate of human NPP1, pH 9.0, 37°C. Here is the method: as §1

[13] abbreviates: substrate p-Nph-5′-TMP, mean ± SD of three independent experiments, read-out: Ki ± SD, p-Nph-5′-TMP.
[14] abbreviates: substrate p-Nph-5′-AMP, mean ± SD of three independent experiments, read-out: Ki ± SD, p-Nph-5′-AMP.

Read-outs that look alike come from different tables or passages of the source. Marks after values point to notes of the source that are not given here. Some results are limits rather than exact numbers.

For `Nc1ncnc2c1ncn2[C@@H]1O[C@H](COP(=O)(O)OP(=O)(O)OP(=O)(O)O)[C@@H](O)[C@H]1O` [ATP, adenosine 5′-triphosphate], in data set [1], the turnover number (kcat) is 5.51 s⁻¹.

For the molecule `Nc1ncnc2c1ncn2[C@@H]1O[C@H](COP(=O)(O)CP(=O)(O)OP(=O)(O)O)[C@@H](O)[C@H]1O` [α,β-metATP, adenosine 5′-(α,β-methylene)triphosphate], in [2], the Inhibition type result is “Competitive”.

Turning to `CSc1nc(N)c2ncn([C@@H]3O[C@H](COP(=O)(O)OP(=O)(O)O)[C@@H](O)[C@H]3O)c2n1` [2-MeSADP, 2-methylthio-adenosine 5′-diphosphate], the Ki in [3] was 32.8 ± 7 µM; in data set [4] (setting [13]), 2.18 ± 0.29 µM; in data set [5] (setting [14]), 35.4 ± 6.4 µM. In data set [2], the Inhibition type result is “Competitive”.

Regarding `CSc1nc(N)c2ncn([C@@H]3O[C@H](COP(=O)(O)OP(=O)(O)OP(=O)(O)O)[C@@H](O)[C@H]3O)c2n1` [2-MeSATP, 2-methylthio-adenosine 5′-triphosphate], the Ki is 25.3 ± 5.9 µM in data set [3], 4.47 ± 0.66 µM in data set [4] (setting [13]) and 39.9 ± 6.9 µM in data set [5] (setting [14]). Moreover, the Inhibition type result in [2] is “Competitive”.

For the molecule [TiW11CoO40]^8−, the figures for the Ki in data set [4] (setting [13]), in data set [5] (setting [14]) and in data set [6] were 0.00199 ± 0.00033 µM, 0.00174 ± 0.00099 µM and 0.00146 ± 1e-05 µM, respectively. Besides, in data set [2], the Inhibition type entry is listed as “Non-competitive”.

As to `Cc1ccc(C(=O)Nc2ccc(S(=O)(=O)O)c3cc(S(=O)(=O)O)cc(S(=O)(=O)O)c23)cc1NC(=O)c1cccc(NC(=O)Nc2cccc(C(=O)Nc3cc(C(=O)Nc4ccc(S(=O)(=O)O)c5cc(S(=O)(=O)O)cc(S(=O)(=O)O)c45)ccc3C)c2)c1` [suramin], the Ki in [7] was 0.26 µM.

With `COc1cc2ncnc(N3CCC(CCNS(N)(=O)=O)CC3)c2cc1OC` [SAR 03004, N-[2-[1-(6,7-Dimethoxyquinazolin-4-yl)piperidin-4-yl]ethyl]sulfuric diamide], in data set [2], the Inhibition type entry is “Competitive”. In addition, the IC50 in [7] (ATP as a substrate, ref Patel et al., 2009) is […].

On to `COc1ccc(NC(=O)CSc2nc3c(N)ncnc3[nH]2)cc1OC` [PZB08513136A, 2-(6-Amino-9H-purin-8-ylthio)-N-(3,4-dimethoxyphenyl)acetamide], for which the Ki in data set [5] (setting [14]) worked out at 14.9 ± 0.8 µM. The Inhibition type entry in data set [2] was “Competitive”. Besides, the “fold difference in potency, p-Nph-5′-TMP vs. ATP as substrate” value in data set [8] was “more than 100 fold”.

In the case of `Nc1ncnc2c1ncn2[C@@H]1O[C@H](COP(=O)(O)CP(=O)(O)O)[C@@H](O)[C@H]1O` [α,β-metADP, adenosine 5′-(α,β-methylene)diphosphate], the inhibition constant Ki worked out at 16.5 ± 3.1 µM in [3], 1.28 ± 0.16 µM in data set [4] and 25.8 ± 4.1 µM in data set [5]. Also, the Inhibition type entry in data set [2] was “Competitive”.

In the case of `Nc1ncnc2c1ncn2[C@@H](C=O)O[C@@H](C=O)COP(=O)(O)OP(=O)(O)OP(=O)(O)O` [dialATP, adenosine 5′-triphosphate-2′,3′-dialdehyde], the “αKi ± SD, ATP” value in data set [3] (αKi-value (un-competitive inhibitor), substrate ATP, mean ± SD of three independent experiments) is recorded as 6.82 ± 1.01^b μM. Further, the “αKi ± SD, p-Nph-5′-TMP” value in [4] (αKi-value (un-competitive inhibitor), substrate p-Nph-5′-TMP, mean ± SD of three independent experiments) is 4.09 ± 0.41^b μM. Besides, in data set [5] (αKi-value (un-competitive inhibitor), substrate p-Nph-5′-AMP, mean ± SD of three independent experiments), the “αKi ± SD, p-Nph-5′-AMP” value is given as 5.08 ± 0.33^b μM. Further, in data set [2], the inhibitory constant (Ki) is around 5 µM and the Inhibition type entry is listed as “Un-competitive”. The “manner of NPP1 inhibition” value in [9] is given as “uncompetitive”.

With `Nc1c(S(=O)(=O)O)cc(Nc2ccc(Nc3nc(Cl)nc(Nc4cccc(S(=O)(=O)O)c4)n3)c(S(=O)(=O)O)c2)c2c1C(=O)c1ccccc1C2=O` [reactive blue 2], the inhibition constant Ki was 0.141 ± 0.031 µM in data set [3], 0.198 ± 0.034 µM in data set [4], 0.176 ± 0.025 µM in data set [5] and 0.52 µM in data set [7]. Besides, the Inhibition type entry in [2] is on record as “Non-competitive”.

Regarding `Nc1ncnc2c1ncn2[C@@H]1O[C@H](COP(=O)(O)Oc2ccc([N+](=O)[O-])cc2)[C@@H](O)[C@H]1O` [p-Nph-5′-AMP, p-nitrophenyl 5′-adenosine monophosphate], the “Km-value fold higher than that for ATP” value in data set [10] (compared to natural substrate ATP) was above 20 fold. Moreover, the turnover number (kcat) in [10] worked out at 2.51 s⁻¹.

On to `Nc1ncnc2c1ncn2[C@@H](C=O)O[C@@H](C=O)COP(=O)(O)OP(=O)(O)O` [dialADP, Adenosine 5′-diphosphate-2′,3′-dialdehyde], for which the Ki in [3] is 5.62 ± 1.23 µM; in data set [4] (setting [13]), 5.03 ± 0.15 µM; in data set [5] (setting [14]), 5.09 ± 1.72 µM; in data set [2] it was around 5 µM. The Inhibition type result in data set [2] is reported as “Non-competitive”. The “manner of NPP1 inhibition” value in data set [9] is given as “non-competitive”.

Regarding `Cc1cn([C@H]2C[C@H](O)[C@@H](COP(=O)(O)Oc3ccc([N+](=O)[O-])cc3)O2)c(=O)[nH]c1=O` [p-Nph-5′-TMP, p-Nitrophenyl 5′-thymidine monophosphate], the “kcat-value fold higher than that for p-Nph-5′-AMP” value in data set [10] (compared to p-Nph-5′-AMP) is recorded as around 10 fold. Further, the catalytic constant (kcat) in [10] worked out at 22.3 s⁻¹.

B1: human NPP1 (Homo sapiens) (protein)
chain: VEEPCESINEPQCPAGFETPPTLLFSLDGFRAEYLHTWGGLLPVISKLKKCGTYTKNMRPVYPTKTFPNHYSIVTGLYPESHGIIDNKMYDPKMNASFSLKSKEKFNPEWYKGEPIWVTAKYQGLKSGTFFWPGSDVEINGIFPDIYKMYNGSVPFEERILAVLQWLQLPKDERPHFYTLYLEEPDSSGHSYGPVSSEVIKALQRVDGMVGMLMDGLKELNLHRCLNLILISDHGMEQGSCKKYIYLNKYLGDVKNIKVIYGPAARLRPSDVPDKYYSFNYEGIARNLSCREPNQHFKPYLKHFLPKRLHFAKSDRIEPLTFYLDPQWQLALNPSERKYCGSGFHGSDNVFSNMQALFVGYGPGFKHGIEADTFENIEVYNLMCDLLNLTPAPNNGTHGSL
notes: Human recombinant soluble NPP1 (Val191—Leu591) expressed in murine myeloma NS0 cells; His-tag (N); purchased R&D Systems GmbH (Wiesbaden, Germany); host or cells: murine myeloma NS0 cells
As for B1, in data set [11], the Km turned out to be 222 µM. Further, in [12], the Km was 188 µM, the kcat came to 2.51 s⁻¹ and the catalytic efficiency (kcat/Km) was determined as 13400 M⁻¹ s⁻¹.
